Measurements taken from ChEMBL document CHEMBL1131026, “D-amino acid containing, high-affinity inhibitors of recombinant human calpain I” (J Med Chem, 1998).
Square brackets hold non-standard residues; d marks the D form. Peptide text beside a SMILES is read from it. * marks the point of attachment. d(hPhe) = N[C@H](CCc1ccccc1)C(=O)O; d2Thi = N[C@H](Cc1cccs1)C(=O)O; dPhg = N[C@@H](C(=O)O)c1ccccc1; Abu = CC[C@H](N)C(=O)O; Bn = c1ccc(C*)cc1; Ms = CS(=O)(=O)*

Tests used:
[1] = molecular target: T1, Calpain-1 catalytic subunit (Homo sapiens, UniProt P07384); assay: Inhibitory activity against recombinant human Calpain-I receptor
T1 sequence (P07384 whole entry): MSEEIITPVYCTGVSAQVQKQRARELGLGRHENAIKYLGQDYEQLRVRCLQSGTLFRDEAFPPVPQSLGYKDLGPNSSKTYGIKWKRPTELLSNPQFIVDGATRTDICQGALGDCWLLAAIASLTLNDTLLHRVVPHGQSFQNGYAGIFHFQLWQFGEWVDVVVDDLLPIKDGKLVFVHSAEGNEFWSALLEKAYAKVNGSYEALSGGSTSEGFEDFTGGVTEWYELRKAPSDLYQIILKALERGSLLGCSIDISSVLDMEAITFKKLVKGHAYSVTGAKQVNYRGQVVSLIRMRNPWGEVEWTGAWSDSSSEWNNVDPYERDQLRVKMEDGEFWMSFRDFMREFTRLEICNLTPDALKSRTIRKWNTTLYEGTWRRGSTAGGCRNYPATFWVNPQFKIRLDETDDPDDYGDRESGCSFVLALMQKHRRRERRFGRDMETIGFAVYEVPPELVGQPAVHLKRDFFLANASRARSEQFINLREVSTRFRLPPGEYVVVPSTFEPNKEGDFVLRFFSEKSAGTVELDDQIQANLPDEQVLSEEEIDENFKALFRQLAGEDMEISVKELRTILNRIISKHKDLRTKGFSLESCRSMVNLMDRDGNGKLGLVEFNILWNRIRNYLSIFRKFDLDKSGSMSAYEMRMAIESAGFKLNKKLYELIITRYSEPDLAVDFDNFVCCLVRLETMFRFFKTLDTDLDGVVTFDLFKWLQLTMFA

[2] = molecular target: T1, Calpain-1 catalytic subunit; assay: Inhibition of intracellular Calpain-I receptor using intact cell assay system; assay type: cell-based
Cathepsin B = Cathepsin B (Homo sapiens, UniProt P07858); assay: Inhibitory activity against cathepsin B receptor in human liver
[3] = molecular target: Prothrombin (Homo sapiens) (UniProt P00734); assay: Inhibitory activity against human plasma thrombin at 10 uM; assay type: cell-free
[4] = molecular target: Chymotrypsinogen A (Bos taurus) (UniProt P00766); assay: Inhibitory activity against Bovine pancreas alpha-chymotrypsin at 10 uM

SMILES | Ki [1] | IC50 [2] | Ki (Cathepsin B) | inhibition [3] | inhibition [4]
O=C[C@H](Cc1ccccc1)NC(=O)[C@@H](COCc1ccccc1)NS(=O)(=O)c1ccccc1 | 22 nM | – | – | – | –
CCNC(=O)C(=O)[C@H](Cc1ccccc1)NC(=O)[C@@H](COCc1ccccc1)NS(C)(=O)=O | 130 nM | – | – | – | –
CN([C@H](COCc1ccccc1)C(=O)N[C@H](C=O)Cc1ccccc1)S(C)(=O)=O | 370 nM | – | – | – | –
CCS(=O)(=O)N[C@H](COCc1ccccc1)C(=O)N[C@H](C=O)Cc1ccccc1 | 9 nM | 400 nM | 45 nM | 9% | 15%
CS(=O)(=O)N[C@H](COCc1ccccc1)C(=O)N[C@H](C=O)CCCCNS(=O)(=O)c1ccccc1 | 2 nM | 400 nM | 4 nM | 0% | 13%
CC(OCc1ccccc1)[C@@H](NS(C)(=O)=O)C(=O)N[C@H](C=O)Cc1ccccc1 (some centres not stated) | 9 nM | 500 nM | 44 nM | 0% | 3%
O=C[C@H](Cc1ccccc1)NC(=O)[C@@H](COCc1ccccc1)NS(=O)(=O)c1cccs1 | 9 nM | – | – | – | –
CS(=O)(=O)N[C@H](Cc1cccs1)C(=O)N[C@H](C=O)Cc1ccccc1 (Ms-[d2Thi]-Phe-aldehyde) | 11 nM | 300 nM | 23 nM | 0% | 0%
CC(C)C[C@@H](NS(C)(=O)=O)C(=O)N[C@H](C=O)Cc1ccccc1 (Ms-[dL]-Phe-aldehyde) | 29 nM | – | – | – | –
CC(C)C[C@@H](C=O)NC(=O)[C@@H](COCc1ccccc1)NS(C)(=O)=O (Ms-[dS](Bn)-Leu-aldehyde) | 66 nM | – | – | – | –
CS(=O)(=O)N[C@H](COCc1ccccc1)C(=O)N[C@H](C=O)Cc1ccc(OCc2ccccc2)cc1 (Ms-[dS](Bn)-Tyr(Bn)-aldehyde) | 4 nM | 700 nM | 45 nM | 0% | 0%
CC[C@@H](C=O)NC(=O)[C@@H](COCc1ccccc1)NS(C)(=O)=O (Ms-[dS](Bn)-[Abu]-aldehyde) | 36 nM | – | – | – | –
CS(=O)(=O)N[C@H](Cc1c[nH]c2ccccc12)C(=O)N[C@H](C=O)Cc1ccccc1 (Ms-[dW]-Phe-aldehyde) | 10 nM | – | – | – | –

Further lines, results first:

Ki [1] | IC50 [2] | Ki (Cathepsin B) | inhibition [3] | inhibition [4] | SMILES
8 nM | 700 nM | 32 nM | 0% | 23% | CS(=O)(=O)N[C@H](COCc1ccccc1)C(=O)N[C@H](C=O)Cc1ccccc1
11 nM | – | – | – | – | CS(=O)(=O)N[C@H](CS(=O)(=O)Cc1ccccc1)C(=O)N[C@H](C=O)Cc1ccccc1
28 nM | – | – | – | – | CS(=O)(=O)N[C@H](CCc1ccccc1)C(=O)N[C@H](C=O)Cc1ccccc1 (Ms-[d(hPhe)]-Phe-aldehyde)
6 nM | 800 nM | 41 nM | 7% | 16% | CS(=O)(=O)N[C@H](CSCc1ccccc1)C(=O)N[C@H](C=O)Cc1ccccc1 (Ms-[dC](Bn)-Phe-aldehyde)
11 nM | 600 nM | 120 nM | 0% | 12% | CS(=O)(=O)N[C@H](Cc1ccccc1)C(=O)N[C@H](C=O)Cc1ccccc1 (Ms-[dF]-Phe-aldehyde)
9 nM | – | – | – | – | CS(=O)(=O)N[C@@H](C(=O)N[C@H](C=O)Cc1ccccc1)c1ccccc1 (Ms-[dPhg]-Phe-aldehyde)
41 nM | – | – | – | – | CS(=O)(=O)NC(COCc1ccccc1)C(=O)N[C@H](C=O)Cc1ccccc1 (single isomer, unassigned)
